# Laboratory results from patent US10188693B2, “Methods for treatment of atherosclerosis” (Stealth BioTherapeutics Corp, priority 2012, dated 2019).
# Where “and” joins values, the source holds several entries; their conditions need not be identical. Equal values may be shown once.
# Assays:
# Human skin fibroblasts = assay: Coenzyme Q10 levels in fibroblasts treated with peptide; format: cell-based; settings: 10 nM peptide, 16-24 hours or 5 days, versus saline treated fibroblasts; listed as aromatic-cationic peptide
# Description: Fibroblasts were treated with an aromatic-cationic peptide of the present disclosure, and levels of coenzyme Q10 were evaluated.
# Human skin fibroblasts from normal subjects were incubated under standard tissue culture medium containing high glucose levels to support anaerobic conditions. At approximately 90% confluence, cells were incubated in the presence of 10 nM D-Arg-2′6′-Dmt-Lys-Phe-NH2 for a period of either one day (24 h) or five days as shown in Table 11 below. The culture medium was not changed during the incubation period. Cells were harvested and the cellular level of CoQ was determined using methods known in the art. Data represents the average n=3-6.
# [1] = system: Apoprotein E deficient mice; assay: Plasma lipid analysis using an autoanalyzer (TC, Trigs, PL, FC, CE by calculation); format: in vivo; parameters: TC, plasma / FC, plasma / CE, plasma / Trigs, plasma / PL, plasma / TC / FC / CE / Trigs / PL: unit not given here; settings: for CE: plasma cholesterol ester; for FC: plasma free cholesterol; for PL: plasma phospholipid; for TC: plasma total cholesterol; for Trigs: plasma triglycerides
# Description: Apoprotein E deficient mice (Jackson Laboratories, 600 Main Street, Bar Harbor, Me.) were used in this study. The mice were male, 7-8 weeks of age, and between 18-20 g in weight. An initial total cholesterol measurement was made on 30 mice, and the mice were grouped into two groups of 15 to match the total cholesterol measurements. Both groups were fed a “western diet” (40 kcal % butterfat, 0.15% [wt/wt] cholesterol, Harlan Teklad diet TD-88137). Starting at t=0, the control group of 15 mice received vehicle only (phosphate buffered saline at pH 7.4), while the test group of 15 mice received aromatic-cationic peptide reconstituted in phosphate buffered saline. Body weights of the mice were recorded weekly, and mortality checks were performed daily.
# The aromatic-cationic peptide D-Arg-2′6′-Dmt-Lys-Phe-NH2 (sterile lyophilized powder, reconstituted in phosphate buffered saline) was tested. For the 12-week study, test mice received a single, daily dose of the peptide, subcutaneously at 1 mg/kg. Control mice received a single daily dose of vehicle.
# Experimental Protocol/Data Collection. Blood was collected every four weeks (orbital plexis) under isoflurane anesthesia (3%) and blood lipids were determined. Plasma lipid analysis was conducted for both groups at t=0, 4, […], 8, and 12 weeks. Plasma lipid analysis using an autoanalyzer included total cholesterol (TC), triglycerides (Trigs), phospholipids (PL), free cholesterol (FC), and cholesterol ester (CE, by calculation). Gel electrophoresis was used to measure levels of high-density lipoprotein cholesterol (HDL-C), low-density lipoprotein cholesterol (LDL-C), and very low-density lipoprotein cholesterol (VLDL-C).
# [2] = Week 0 (t=0, start of dosing), individual mouse of test group
# [3] = Week 0, group average of test group
# [4] = at 4, 8 and 12 week time points, versus vehicle
# [5] = week 4, individual test mouse (sample #16-30), listed as aromatic-cationic peptide
# [6] = week 8, individual test mouse (sample #16-30), listed as aromatic-cationic peptide
# [7] = week 12, AVE of 15 test animals
# [8] = week 12, individual test mouse (sample #16-30), listed as aromatic-cationic peptide
substance,measurement,setting,value
D-Arg-2′6′-Dmt-Lys-Phe-NH2,"coenzyme Q10 levels in fibroblast cells, in words",Human skin fibroblasts,increased
same,"FC, plasma",[1]; [2],119 and 121 and 134 (2×) and 110 and 116 and 131 and 129 and 184 and 113 and 139 and 170 and 151 and 159 and 220
same,"PL, plasma",[1]; [2],267 (3×) and 308 and 255 and 306 and 298 and 369 and 238 and 320 and 313 and 332 and 343 and 338 and 413
same,"TC, plasma",[1]; [2],302 (2×) and 318 and 376 and 323 and 335 and 369 and 550 and 309 and 409 and 431 and 552 and 457 and 490 and 808
same,"Trigs, plasma",[1]; [2],75 and 88 (3×) and 117 and 96 and 71 and 138 and 167 and 136 and 151 and 191 and 188 and 154 and 353
same,"CE, plasma","[1]; Week 0 (t=0, start of dosing), individual mouse of test group, by calculation",183 and 197 and 242 and 192 and 207 and 204 and 240 and 366 and 196 and 270 and 297 and 382 and 306 and 331 and 588
same,"FC, plasma, AVE",[1]; [3],142
same,"PL, plasma, AVE",[1]; [3],309
same,"TC, plasma, AVE",[1]; [3],422
same,"Trigs, plasma, AVE",[1]; [3],140
same,"CE, plasma, AVE","[1]; Week 0, group average of test group, by calculation",280
same,"plasma cholesterol ester, in words",[1]; [4],reduces
same,"plasma free cholesterol, in words",[1]; [4],reduces
same,"plasma phospholipid levels, in words",[1]; [4],reduces
same,"plasma total cholesterol, in words",[1]; [4],reduces
same,"plasma triglycerides, in words",[1]; [4],reduces
same,CE,"[1]; week 4, AVE of 15 test animals",610
same,CE,[1]; [5],491 and 580 and 622 and 731 and 626 and 417 and 574 and 660 and 515 and 536 and 630 and 761 and 581 and 732 and 701
same,CE,"[1]; week 8, AVE of 15 test animals",932
same,CE,[1]; [6],940 and 710 and 1119 and 865 and 1153 and 653 and 714 and 1085 and 715 and 670 and 1073 and 1048 and 839 and 1130 and 1267
same,CE,[1]; [7],681
same,CE,[1]; [8],607 and 335 and 597 and 640 and 1002 and 477 and 445 and 476 and 675 and 687 and 960 and 869 and 339 and 904 and 1201
same,FC,"[1]; week 4, AVE of 15 test animals",387
same,FC,[1]; [5],308 and 344 and 354 (2×) and 408 and 412 and 256 and 366 and 386 and 320 and 286 and 396 and 462 and 516 and 636
same,FC,"[1]; week 8, AVE of 15 test animals",350
same,FC,[1]; [6],322 and 294 (2×) and 386 and 318 and 392 and 290 and 388 and 308 (2×) and 286 and 362 and 366 and 404 and 530
same,FC,[1]; [7],322
same,FC,[1]; [8],291 and 205 and 287 and 296 and 418 and 242 and 229 and 269 and 315 and 312 and 419 and 386 and 219 and 413 and 535
same,PL,"[1]; week 4, AVE of 15 test animals",514
same,PL,[1]; [5],422 and 482 and 452 and 560 and 526 and 320 and 506 and 556 and 446 and 416 and 516 and 580 and 510 and 666 and 750
same,PL,"[1]; week 8, AVE of 15 test animals",493
same,PL,[1]; [6],416 and 456 and 474 and 448 and 516 (2×) and 424 and 480 and 488 and 436 and 440 and 556 and 470 and 540 and 728
same,PL,[1]; [7],434
same,PL,[1]; [8],366 and 318 and 320 and 432 and 491 and 321 and 363 and 394 and 374 and 423 and 536 and 521 and 340 and 575 and 741
same,TC,"[1]; week 4, AVE of 15 test animals",997
same,TC,[1]; [5],799 and 924 and 976 and 1139 and 1038 and 673 and 940 and 1046 and 835 and 822 and 1026 and 1223 and 935 and 1248 and 1337
same,TC,"[1]; week 8, AVE of 15 test animals",1282
same,TC,[1]; [6],1262 and 1004 and 1505 and 1183 and 1545 and 943 and 1008 and 1473 and 1023 and 956 and 1435 and 1414 and 1147 and 1534 and 1797
same,TC,[1]; [7],1003
same,TC,[1]; [8],898 and 540 and 884 and 937 and 1420 and 719 and 674 and 745 and 990 and 999 and 1379 and 1255 and 558 and 1317 and 1736
same,Trigs,"[1]; week 4, AVE of 15 test animals",58
same,Trigs,[1]; [5],18 (2×) and 39 and 28 and 85 and 59 (2×) and 46 and 108 and 33 and 44 (2×) and 67 and 80 and 144
same,Trigs,"[1]; week 8, AVE of 15 test animals",57
same,Trigs,[1]; [6],34 (3×) and 31 (2×) and 51 (2×) and 48 and 53 and 43 and 75 and 63 and 39 and 67 and 195
same,Trigs,[1]; [7],55
same,Trigs,[1]; [8],27 and 49 and 10 and 37 (2×) and 18 and 39 (2×) and 13 and 25 and 74 and 89 and 97 and 112 and 158
